# Measurements taken from patent publication US8247211B2, “Glycopeptide antibiotics” (American Cyanamid Company, priority 2001, dated 2012).
# Legend:
# Experiment in all cases: In vitro antibacterial evaluation: minimum inhibitory concentration (MIC), broth dilution method
# Format in all cases: cell-based
# Streptococcus sp. = details: for MIC Streptococcus pyogenes (GC 4563): strain GC 4563; for MIC Streptococcus agalactiae (GC 4564): strain GC 4564
# Method: (§1) The minimum inhibitory concentration (MIC), the lowest concentration of the antibiotic which inhibits growth of the test organism, is determined by the broth dilution method using Muller-Hinton II […] (Baltimore Biological Laboratories) following the recommendations of the National Committee for Clinical Laboratory Standards [Methods for dilution antimicrobial susceptibility tests for bacteria that grow aerobically, approved standard M7-A2, National Committee for Clinical Laboratory Standards, Villanova, Pa].
# (§2) An inoculum level of 5×10^5 CFU/mL, and a range of antibiotic concentrations (64-0.06 μg/mL) is used. […] The test organisms include a spectrum of Gram-positive bacteria comprised of Staphylococcus sp., Streptococcus sp. and Enterococcus sp. These organisms include recent clinical isolates that are resistant to methicillin, penicillin and/or vancomycin.
# Staphylococcus sp. = details: broth dilution, 18 hours at 35° C.
# Method: as §1, §2
# Enterococcus sp. = details: for MIC Enterococcus faecalis (ATCC 29212): strain ATCC 29212; for MIC Enterococcus faecalis (GC 2242): strain GC 2242; for MIC Enterococcus faecium (GC 2243): strain GC 2243; for MIC Enterococcus faecalis (GC 2691): strain GC 2691; for MIC Enterococcus faecalis (GC 3059): strain GC 3059; for MIC Enterococcus faecalis (GC 4552): strain GC 4552; for MIC Enterococcus faecalis (GC 4553): strain GC 4553; for MIC Enterococcus faecalis (GC 4554): strain GC 4554; for MIC Enterococcus faecium (GC 4556): strain GC 4556; for MIC Enterococcus faecium (GC 4557): strain GC 4557; for MIC Enterococcus avium (GC 4558): strain GC 4558; for MIC Enterococcus faecalis (GC 6189): strain GC 6189
# Method: as §1, §2
# Escherichia coli = details: for MIC Escherichia coli (GC 4559): strain GC 4559; for MIC Escherichi coli (GC 4560): strain GC 4560
# Method: as §1, §2
smiles,measurement,setting,value
"CC(c1ccccc1)C1NC(=O)CNC(=O)C(CO)NC(=O)C(C(O)C2CNC(=N)N2C2OC(CO)C(O)C(O)C2O)NC(=O)C(C(O)C2CNC(=N)N2)NC(=O)C(Cc2ccc(OC3OC(CO)C(OC4OC5COC(c6ccc7ccccc7c6)OC5C(O)C4O)C(O)C3O)cc2)NC1=O (stereo not drawn) [Example 145, Cyclo[glycyl-β-methylphenylalanyl-O-[4-O-[4,6-O-(2-naphthylmethylene)hexopyranosyl]-hexopyranosyl]tyrosyl-3-(2-iminoimidazolidin-4-yl)seryl-3(3-hexopyranosyl-2-iminoimidazolidin-4-yl)serylseryl]]",MIC Streptococcus pneumoniae (ATCC 6301),Streptococcus sp.; strain ATCC 6301,<0.5 µg/mL
same,MIC Streptococcus pneumoniae (GC 1894),Streptococcus sp.; strain GC 1894,<0.5 µg/mL
same,MIC Streptococcus pyogenes (GC 4563),Streptococcus sp.,1 µg/mL
same,MIC Streptococcus agalactiae (GC 4564),Streptococcus sp.,<0.5 µg/mL
same,MIC Streptococcus pneumoniae (GC 4565),Streptococcus sp.; strain GC 4565,<0.5 µg/mL
same,MIC Coagulase Negative Staphylococcus (GC 4547),Staphylococcus sp.; 5×10^5 CFU/mL,1 µg/mL
same,MIC Coagulase Negative Staphylococcus (GC 4548),Staphylococcus sp.; 5×10^5 CFU/mL,<0.5 µg/mL
same,MIC Coagulase Negative Staphylococcus (GC 4549),Staphylococcus sp.; 5×10^5 CFU/mL,1 µg/mL
same,MIC Coagulase Negative Staphylococcus (GC 4551),Staphylococcus sp.; 5×10^5 CFU/mL,<0.5 µg/mL
same,MIC Coagulase Negative Staphylococcus (GC 6257),Staphylococcus sp.; 5×10^5 CFU/mL,0.5 µg/mL
same,MIC Staphylococcus aureus (ATCC 29213),Staphylococcus sp.; 5×10^5 CFU/mL,1 µg/mL
same,MIC Staphylococcus aureus (GC 1131),Staphylococcus sp.; 5×10^5 CFU/mL,<0.5 µg/mL
same,MIC Staphylococcus aureus (GC 3051),Staphylococcus sp.; 5×10^5 CFU/mL,1 µg/mL
same,MIC Staphylococcus aureus (GC 3053),Staphylococcus sp.; 5×10^5 CFU/mL,1 µg/mL
same,MIC Staphylococcus aureus (GC 4541),Staphylococcus sp.; 5×10^5 CFU/mL,<0.5 µg/mL
same,MIC Staphylococcus aureus (GC 4542),Staphylococcus sp.; 5×10^5 CFU/mL,<0.5 µg/mL
same,MIC Staphylococcus aureus (GC 4544),Staphylococcus sp.; 5×10^5 CFU/mL,1 µg/mL
same,MIC Staphylococcus aureus (GC 4545),Staphylococcus sp.; 5×10^5 CFU/mL,1 µg/mL
same,MIC Staphylococcus aureus-SMITH (GC 4543),Staphylococcus sp.; 5×10^5 CFU/mL,<0.5 µg/mL
same,MIC Staphylococcus haemolyticus (GC 4546),Staphylococcus sp.; 5×10^5 CFU/mL,<0.5 µg/mL
same,MIC Staphylococcus aureus (ATCC 29213),Staphylococcus sp.; strain ATCC 29213,1 µg/mL
same,MIC Staphylococcus aureus (GC 1131),Staphylococcus sp.; strain GC 1131,<0.5 µg/mL
same,MIC Staphylococcus aureus (GC 3051),Staphylococcus sp.; strain GC 3051,1 µg/mL
same,MIC Staphylococcus aureus (GC 3053),Staphylococcus sp.; strain GC 3053,1 µg/mL
same,MIC Staphylococcus aureus (GC 4541),Staphylococcus sp.; strain GC 4541,<0.5 µg/mL
same,MIC Staphylococcus aureus (GC 4542),Staphylococcus sp.; strain GC 4542,<0.5 µg/mL
same,MIC Staphylococcus aureus-SMITH (GC 4543),Staphylococcus sp.; strain GC 4543,<0.5 µg/mL
same,MIC Staphylococcus aureus (GC 4544),Staphylococcus sp.; strain GC 4544,1 µg/mL
same,MIC Staphylococcus aureus (GC 4545),Staphylococcus sp.; strain GC 4545,1 µg/mL
same,MIC Staphylococcus haemolyticus (GC 4546),Staphylococcus sp.; strain GC 4546,<0.5 µg/mL
same,MIC Coagulase Negative Staphylococcus (GC 4547),Staphylococcus sp.; strain GC 4547,1 µg/mL
same,MIC Coagulase Negative Staphylococcus (GC 4548),Staphylococcus sp.; strain GC 4548,<0.5 µg/mL
same,MIC Coagulase Negative Staphylococcus (GC 4549),Staphylococcus sp.; strain GC 4549,1 µg/mL
same,MIC Coagulase Negative Staphylococcus (GC 4551),Staphylococcus sp.; strain GC 4551,<0.5 µg/mL
same,MIC Coagulase Negative Staphylococcus (GC 6257),Staphylococcus sp.; strain GC 6257,0.5 µg/mL
same,MIC Enterococcus faecalis (ATCC 29212),Enterococcus sp.,1 µg/mL
same,MIC Enterococcus faecalis (GC 2242),Enterococcus sp.,<0.5 µg/mL
same,MIC Enterococcus faecium (GC 2243),Enterococcus sp.,1 µg/mL
same,MIC Enterococcus faecalis (GC 2691),Enterococcus sp.,1 µg/mL
same,MIC Enterococcus faecalis (GC 3059),Enterococcus sp.,1 µg/mL
same,MIC Enterococcus faecalis (GC 4552),Enterococcus sp.,1 µg/mL
same,MIC Enterococcus faecalis (GC 4553),Enterococcus sp.,2 µg/mL
same,MIC Enterococcus faecalis (GC 4554),Enterococcus sp.,1 µg/mL
same,MIC Enterococcus faecium (GC 4556),Enterococcus sp.,1 µg/mL
same,MIC Enterococcus faecium (GC 4557),Enterococcus sp.,1 µg/mL
same,MIC Enterococcus avium (GC 4558),Enterococcus sp.,1 µg/mL
same,MIC Enterococcus faecalis (GC 6189),Enterococcus sp.,1 µg/mL
same,MIC Escherichia coli (ATCC 25922),Escherichia coli; strain ATCC 25922,64 µg/mL
same,MIC Escherichia coli (GC 4559),Escherichia coli,32 µg/mL
same,MIC Escherichi coli (GC 4560),Escherichia coli,<0.5 µg/mL
"CC(c1ccccc1)C1NC(=O)CNC(=O)C(CO)NC(=O)C(C(O)C2CNC(=N)N2C2OC(CO)C(O)C(O)C2O)NC(=O)C(C(O)C2CNC(=N)N2)NC(=O)C(Cc2ccc(OC3OC(CO)C(OC4OC5COC(c6ccc(C(C)(C)C)cc6)OC5C(O)C4O)C(O)C3O)cc2)NC1=O (stereo not drawn) [Example 147, Cyclo[glycyl-β-methylphenylalanyl-O-[4-O-[4,6-O-(4-tert-butylbenzylidene)hexonyranosyl]-hexopyranosyl]tyrosyl-3-(2-iminoimidazolidin-4-yl)seryl-3-(3-hexopyranosyl-2-iminoimidazolidin-4-yl)serylseryl]]",MIC Streptococcus pyogenes (GC 4563),Streptococcus sp.,>0.12 µg/mL
same,MIC Streptococcus agalactiae (GC 4564),Streptococcus sp.,<0.12 µg/mL
same,MIC Streptococcus pyogenes (ID-3187),Streptococcus sp.; strain ID-3187,<0.5 µg/mL
same,MIC Coagulase Negative Staphylococcus (GC 4547),Staphylococcus sp.; 5×10^5 CFU/mL,1 to 2 µg/mL
same,MIC Coagulase Negative Staphylococcus (GC 4548),Staphylococcus sp.; 5×10^5 CFU/mL,<0.5 to 1 µg/mL
same,MIC Coagulase Negative Staphylococcus (GC 4549),Staphylococcus sp.; 5×10^5 CFU/mL,<0.5 to 1 µg/mL
same,MIC Coagulase Negative Staphylococcus (GC 4551),Staphylococcus sp.; 5×10^5 CFU/mL,1 µg/mL
same,MIC Coagulase Negative Staphylococcus (GC 6257),Staphylococcus sp.; 5×10^5 CFU/mL,2 µg/mL
same,MIC Coagulase Negative Staphylococcus (ID-3941),Staphylococcus sp.; 5×10^5 CFU/mL,1 µg/mL
same,MIC Staphylococcus aureus (GC 3051),Staphylococcus sp.; 5×10^5 CFU/mL,0.5 µg/mL
same,MIC Staphylococcus aureus (GC 3053),Staphylococcus sp.; 5×10^5 CFU/mL,0.5 µg/mL
same,MIC Staphylococcus aureus (GC 4542),Staphylococcus sp.; 5×10^5 CFU/mL,0.5 to 1 µg/mL
same,MIC Staphylococcus aureus (GC 4544),Staphylococcus sp.; 5×10^5 CFU/mL,0.5 to 1 µg/mL
same,MIC Staphylococcus aureus (GC 4545),Staphylococcus sp.; 5×10^5 CFU/mL,0.5 to 1 µg/mL
same,MIC Staphylococcus aureus-SMITH (GC 4543),Staphylococcus sp.; 5×10^5 CFU/mL,0.5 to 1 µg/mL
same,MIC Staphylococcus haemolyticus (GC 4546),Staphylococcus sp.; 5×10^5 CFU/mL,1 to 2 µg/mL
same,MIC Staphylococcus aureus (GC 3051),Staphylococcus sp.; strain GC 3051,0.5 µg/mL
same,MIC Staphylococcus aureus (GC 3053),Staphylococcus sp.; strain GC 3053,0.5 µg/mL
same,MIC Staphylococcus aureus (GC 4542),Staphylococcus sp.; strain GC 4542,0.5 to 1 µg/mL
same,MIC Staphylococcus aureus-SMITH (GC 4543),Staphylococcus sp.; strain GC 4543,0.5 to 1 µg/mL
same,MIC Staphylococcus aureus (GC 4544),Staphylococcus sp.; strain GC 4544,0.5 to 1 µg/mL
same,MIC Staphylococcus aureus (GC 4545),Staphylococcus sp.; strain GC 4545,0.5 to 1 µg/mL
same,MIC Staphylococcus haemolyticus (GC 4546),Staphylococcus sp.; strain GC 4546,1 to 2 µg/mL
same,MIC Coagulase Negative Staphylococcus (GC 4547),Staphylococcus sp.; strain GC 4547,1 to 2 µg/mL
same,MIC Coagulase Negative Staphylococcus (GC 4548),Staphylococcus sp.; strain GC 4548,<0.5 to 1 µg/mL
same,MIC Coagulase Negative Staphylococcus (GC 4549),Staphylococcus sp.; strain GC 4549,<0.5 to 1 µg/mL
same,MIC Coagulase Negative Staphylococcus (GC 4551),Staphylococcus sp.; strain GC 4551,1 µg/mL
same,MIC Coagulase Negative Staphylococcus (GC 6257),Staphylococcus sp.; strain GC 6257,2 µg/mL
same,MIC Coagulase Negative Staphylococcus (ID-3941),Staphylococcus sp.; strain ID-3941,1 µg/mL
same,MIC Enterococcus faecalis (ATCC 29212),Enterococcus sp.,0.5 to 2 µg/mL
same,MIC Enterococcus faecalis (GC 2242),Enterococcus sp.,0.5 to 1 µg/mL
same,MIC Enterococcus faecium (GC 2243),Enterococcus sp.,1 to 2 µg/mL
same,MIC Enterococcus faecalis (GC 2691),Enterococcus sp.,0.5 µg/mL
same,MIC Enterococcus faecalis (GC 3059),Enterococcus sp.,0.5 µg/mL
same,MIC Enterococcus faecalis (GC 4552),Enterococcus sp.,0.5 to 1 µg/mL
same,MIC Enterococcus faecalis (GC 4553),Enterococcus sp.,0.5 to 1 µg/mL
same,MIC Enterococcus faecalis (GC 4554),Enterococcus sp.,0.5 to 1 µg/mL
same,MIC Enterococcus faecium (GC 4556),Enterococcus sp.,2 µg/mL
same,MIC Enterococcus faecium (GC 4557),Enterococcus sp.,1 to 2 µg/mL
same,MIC Enterococcus avium (GC 4558),Enterococcus sp.,0.5 to 2 µg/mL
same,MIC Enterococcus faecalis (GC 6189),Enterococcus sp.,0.5 µg/mL
same,MIC Escherichia coli (GC 4559),Escherichia coli,64 µg/mL
same,MIC Escherichi coli (GC 4560),Escherichia coli,0.5 to 2 µg/mL
